The text below walks through data of ChEMBL document CHEMBL1201862, “PubChem BioAssay data set” (2004).

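Step 1: Grow cells in 96-well plates. Step 2: Expose to compound for 48 hours at 5 concentrations. Step 3: Interpolate endpoints linearly; if unreached, use highest concentration. GI50 = concentration required for 50% inhibition of growth.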 Activity calls are given as the source filed them. Cut-off read from the data, not from the text of the source: active = GI50 up to about 1.1 µM and inactive = higher.

As usually defined, the GI50 is the concentration giving 50% growth inhibition.

Holding throughout (assay): DTP human tumour cell line panel, 48 h
In test [1] the test system is COLO 205.
In test [2] the test system is HT-29.
Test [3] relates to SF-539.
Test [4] has as its system RPMI-8226.
In test [5] the test system is UACC-62.
Test [6] deals with SK-MEL-28.
Test [7] has as its system OVCAR-5.
Test [8] concerns UO-31.
Test [9] has as its system IGROV-1.
Test [10] deals with M14.
For test [11], the system named is SNB-75.
The test system of test [12] is SF-268.
Test [13] relates to A498.
The subject of test [14] is HL-60.
The subject of test [15] is OVCAR-4.
Test [16] deals with SK-OV-3.
The test system of test [17] is U-251.
The test system of test [18] is SK-MEL-2.
Test [19] relates to NCI-H226.
For test [20], the system named is A549.

Regarding `COc1ccc(Nc2nc(N)c(C(=O)c3c[nH]c4ccccc34)s2)cc1`, the GI50 in test [1] was 0.731 µM (active); in test [2] it was 0.583 µM (active); in test [3], 2.42 µM (inactive); in [4] it was 0.998 µM (active); in test [5], 5.79 µM (inactive); in [6], 14.9 µM (inactive). Further, the GI50 was 3.13 µM (inactive) in test [7]; 3.52 µM (inactive) in [8]; 1.13 µM (inactive) in test [9]; 1.23 µM (inactive) in [10]; 1.57 µM (inactive) in [11]; 6.84 µM (inactive) in test [12]. Also, the GI50 in test [13] is 2.05 µM (inactive); in test [14], 1.07 µM (active); in test [15] it was 5.42 µM (inactive); in test [16], 4.51 µM (inactive); in [17], 1.58 µM (inactive); in test [18], 3.98 µM (inactive). Moreover, the figures for the GI50 in test [19] and in [20] were 11.1 µM (inactive) and 1.41 µM (inactive), respectively.

For the compound `CC1(C)OC2OC(COC(=O)C(c3ccccc3)c3ccccc3)C3OC(C)(C)OC3C2O1` (stereo not given), the GI50 in test [1] was 31 µM (inactive); in test [2], 8.79 µM (inactive); in [3] it was 95.9 µM (inactive); in [4], 4.5 µM (inactive); in test [5], 9.27 µM (inactive); in [6], 43.5 µM (inactive). The GI50 in test [7] is > 10 µM (inactive); in [8], 35.5 µM (inactive); in test [9] it was > 10 µM (inactive); in [10] it was 93.1 µM (inactive); in test [11], 17.1 µM (inactive); in test [12], 16.9 µM (inactive). Also, the GI50 in [13] was > 10 µM (inactive); in test [14], 4.21 µM (inactive); in test [15] it was 8.71 µM (inactive); in test [16], > 10 µM (inactive); in [17] it was > 10 µM (inactive); in test [18], 46.8 µM (inactive). Moreover, the GI50 is > 10 µM (inactive) in [19] and 26.1 µM (inactive) in test [20].

`Cc1c2cc[n+](C)cc2c(C)c2c1[nH]c1ccccc12`: the GI50 in test [1] is 0.538 µM (active); in test [2] it was 5.66 µM (inactive); in test [3], 0.505 µM (active); in test [4], 8.02 µM (inactive); in test [5], 5.18 µM (inactive); in [6] it was 1.62 µM (inactive). Moreover, the GI50 is 10.2 µM (inactive) in [7]; 8.65 µM (inactive) in test [8]; 3.79 µM (inactive) in test [9]; 7.45 µM (inactive) in test [10]; 0.184 µM (active) in [11]; 0.467 µM (active) in test [12]. In addition, the GI50 was 2.39 µM (inactive) in test [13]; 8.69 µM (inactive) in [14]; 2.03 µM (inactive) in [15]; 4.88 µM (inactive) in test [16]; 0.421 µM (active) in [17]; 1.28 µM (inactive) in test [18]. The GI50 in [19] is 0.312 µM (active); in test [20], 0.249 µM (active).

Regarding `Cn1c(=O)c2nc3sc4c(n3c2n(C)c1=O)C(=O)c1ccccc1C4=O`, the GI50 was > 73.5 µM (inactive) in test [1]; 42.6 µM (inactive) in test [2]; > 61.7 µM (inactive) in [3]; 38.4 µM (inactive) in test [4]; > 100 µM (inactive) in test [5]; > 75 µM (inactive) in test [6]. For the same compound, the GI50 in [7] is > 100 µM (inactive); in [8], > 66.2 µM (inactive); in [9] it was > 54.3 µM (inactive); in test [10], > 100 µM (inactive); in [11], 14.7 µM (inactive); in [12], > 78.5 µM (inactive). Further, the GI50 in test [13] was > 100 µM (inactive); in [14], 11.2 µM (inactive); in test [15] it was > 64.6 µM (inactive); in [16], > 47.5 µM (inactive); in [17] it was 39 µM (inactive); in test [18], > 55.5 µM (inactive). In addition, the values for the GI50 in test [19] and in [20] were 65.8 µM (inactive) and > 81.7 µM (inactive), respectively.

For the compound `Cc1ccc(O)c(C(c2ccc([N+](=O)[O-])cc2)c2cc(C)ccc2O)c1`, the GI50 is 20.7 µM (inactive) in test [1]; 12.2 µM (inactive) in [2]; 15.3 µM (inactive) in test [3]; 10.1 µM (inactive) in [4]; 7.4 µM (inactive) in [5]; 16.6 µM (inactive) in test [6]. Further, the GI50 in test [7] was 14.6 µM (inactive); in [8], 3.27 µM (inactive); in test [9], 11 µM (inactive); in [10], 11.7 µM (inactive); in test [11], 2.18 µM (inactive); in test [12], 5.57 µM (inactive). The GI50 in test [13] was 18.4 µM (inactive); in test [14], 1.47 µM (inactive); in [15] it was 10.5 µM (inactive); in test [16], 15.1 µM (inactive); in test [17] it was 16.8 µM (inactive); in [18], 11.5 µM (inactive). The figures for the GI50 in test [19] and in test [20] were 15.9 µM (inactive) and 9.66 µM (inactive), respectively.
